Assay results published in US4370489A, “Herbicidal compounds” (Hoechst Aktiengesellschaft, priority 1976, dated 1983).

What was measured:
Alopecurus = assay: Post-emergence greenhouse pot trial, annual blackgrass (Example I, Table I); type: in vivo, annual blackgrass (Alopecurus); conditions: greenhouse pots, 4 weeks
Experimental: (§1) Seeds of weed grasses were sown in pots filled with loamy soil and placed in the greenhouse for germination and emergence. As soon as the plants had developed 3 or 4 leaves, they were sprayed with wettable powder formulations, suspended in water, of compounds according to the invention.
(§2) The results and also the results of all following examples were evaluated 4 weeks later according to the following scheme:
(§3) 4 is still considered an acceptable herbicidal effect in weeds and a satisfactory preserving effect in crop plants (cf. Bolle, Nachrichtenblatt des Deutschen Pflanzenschutzdienstes 16, 1964, pages 92-94).
(§4) Effect on weed grasses in a post-emergence trial in pots
(§5) in the greenhouse (Evaluation scheme)

Digitaria [1] = assay: Post-emergence greenhouse pot trial, Digitaria (Example I, Table I); type: in vivo; conditions: greenhouse pots, 4 weeks
Experimental: as §1, §2, §3, §4, §5

Echinochloa [2] = assay: Post-emergence greenhouse pot trial, Echinochloa (Example I, Table I); type: in vivo; conditions: greenhouse pots, 4 weeks
Experimental: as §1, §2, §3, §4, §5

Setaria [3] = assay: Post-emergence greenhouse pot trial, Setaria (Example I, Table I); type: in vivo; conditions: greenhouse pots, 4 weeks
Experimental: as §1, §2, §3, §4, §5

Lolium [4] = assay: Post-emergence greenhouse pot trial, Lolium (Example I, Table I); type: in vivo; conditions: greenhouse pots, 4 weeks
Experimental: as §1, §2, §3, §4, §5

Avena fatua [5] = assay: Post-emergence trial in two stages, pots on a site without roof, wild oat (Example II, Table II); type: in vivo; conditions: for 90% effective dose: probit method; for Effect on wild oat (evaluation), Avena fatua: post-emergence
Experimental: as §2
(§6) The amounts of active compound required for a 90% effect, determined by the probit method (cf. Bliss, Annals of Applied Biology, 22 1935), show very distincly the difference between the compound of the invention and the comparative compound. […] None of the compounds did any harm to the wheat.
(§7) Post-emergence treatment in two different stages of development
(§8) Experiments in pots on a site without roof
(§9) stage 1: 3 to 4 leaves with beginning growth of side
(§10) stage 2: main tillering to terminated tillering.

spring wheat [6] = assay: Post-emergence trial in two stages, pots on a site without roof, spring wheat (Example II, Table II); type: in vivo
Experimental: as §2, §6, §7, §8, §9, §10

Avena fatua [7] = assay: Post emergence treatment in two stages, boxes on a site without roof, wild oat (Table III); type: in vivo; conditions: 0.9 kg/hectare
Experimental: as §2
(§11) Effect on wild oat and sugar beet
(§12) Post emergence treatment in two stages of development
(§13) boxes 20 × 24 × 22 cm in size on a site without roof

sugar beet = assay: Post emergence treatment in two stages, boxes on a site without roof, sugar beet (Table III); type: in vivo; conditions: 0.9 kg/hectare
Experimental: as §2, §11, §12, §13

Avena fatua [8] = assay: Post-emergence treatment, pots on a site without roof, Avena fatua (Example IV, Table IV); type: in vivo; conditions: for Effect (evaluation scheme), Avena fatua: post-emergence, emulsion concentrate
Experimental: as §2
(§14) In summer a further experiment was carried through under similar conditions to compare the effect of compound 1a with that of comparative compound A. Both compounds were used in the form of an emulsion concentrate (Table IV).
(§15) Post-emergence treatment (evaluation scheme); experiment
(§16) in pots on a site without roof

Avena ludoviciana = assay: Post-emergence treatment, pots on a site without roof, Avena ludoviciana (Example IV, Table IV); type: in vivo; conditions: for Effect (evaluation scheme), Avena ludoviciana: post-emergence, emulsion concentrate
Experimental: as §2, §14, §15, §16

Alopecurus myos. = assay: Post-emergence treatment, pots on a site without roof, blackgrass (Example IV, Table IV); type: in vivo, annual black-grass (Alopecurus); conditions: for Effect (evaluation scheme), Alopecurus myos.: post-emergence, emulsion concentrate
Experimental: as §2, §14, §15, §16

spring wheat [9] = assay: Post-emergence treatment, pots on a site without roof, spring wheat (Example IV, Table IV); type: in vivo; conditions: emulsion concentrate; note: ranges in brackets are in %
Experimental: as §2, §14, §15, §16

spring barley = assay: Post-emergence treatment, pots on a site without roof, spring barley (Example IV, Table IV); type: in vivo; conditions: emulsion concentrate; note: ranges in brackets are in %
Experimental: as §2, §14, §15, §16

Digitaria [10] = assay: Pre-emergence greenhouse pot trial, Digitaria (Example V, Table V); type: in vivo
Experimental: as §2
(§17) In a greenhouse the compounds to be tested were sprayed on the surface of the soil directly after sowing. […] Dicotyledonous crop plants (the same as used in Example I) were not damaged by the applied amounts.
(§18) Effect on weed grasses in a pre-emergence process (evalua-
(§19) tion scheme) experiment in pots in the greenhouse.

Echinochloa [11] = assay: Pre-emergence greenhouse pot trial, Echinochloa (Example V, Table V); type: in vivo
Experimental: as §2, §17, §18, §19

Lolium [12] = assay: Pre-emergence greenhouse pot trial, Lolium (Example V, Table V); type: in vivo
Experimental: as §2, §17, §18, §19

Setaria [13] = assay: Pre-emergence greenhouse pot trial, Setaria (Example V, Table V); type: in vivo
Experimental: as §2, §17, §18, §19

weed grasses = assay: Pre-emergence greenhouse pot trial, weed grasses overall (Example V); type: in vivo; conditions: in words
Experimental: as §2, §17, §18, §19

wild oat [14] = assay: Field trial in wild oat, post-emergence treatment (Example VI, Table VI); type: in vivo; conditions: for efficiency in % (counting of panicles) / evaluation 5 weeks after treatment: post-emergence
Experimental: In a field trial compound 1a of the invention was sprayed in the form of a 36% wettable powder formulation onto wild oat (single system, natural growth) after the plants had developed 3 or 4 leaves.
Three lots each were treated with different concentrations of the active compound and the comparative compound, the amount of spray liquor applied being 600 liters per hectare. Besides the usual visual evaluation at the end of the trial, the number of panicles per square meter was counted. In the untreated lots 400 to 500 panicles were counted per square meter, i.e. the field was heavily infected.
The relations are still more distinct when the amount of active compound required for a 90% effect is determined by the probit method (graphical evaluation) mentioned in Example II.

wild oat [15] = assay: Post-emergence trial in the greenhouse, wild oat (Example VII, Table VII); type: in vivo; conditions: 31 kg/hectare, emulsion concentrate, 4 weeks after treatment
Experimental: as §2
In a greenhouse some of the compounds of the invention were sprayed on plants of wild oat, the compounds being used as emulsion concentrates.
Post-emergence trial in the greenhouse
Effect on wild oat 4 weeks after treatment
Dose 31 kg/hectare of active compound (as emulsion

COC(=O)C(C)Oc1ccc(Oc2ccc(Br)cc2Cl)cc1 (stereo not drawn) [Compound 1a, Methyl-4-(2'-chloro-4'-bromophenoxy)-α-phenoxy-propionate]
Effect on weed grasses (evaluation scheme number), Alopecurus (Alopecurus; 0.15 kg/hectare): 3 (95.0 to <.97.5)
Effect on weed grasses (evaluation scheme number), Alopecurus (Alopecurus; 0.62 kg/hectare): 1 (100)
Effect on weed grasses (evaluation scheme number), Alopecurus (Alopecurus; 2.5 kg/hectare): 1 (100)
Effect on weed grasses (evaluation scheme number), Digitaria (Digitaria [1]; 0.15 kg/hectare): 6 (75.0 to <85.0)
Effect on weed grasses (evaluation scheme number), Digitaria (Digitaria [1]; 0.62 kg/hectare): 1 (100)
Effect on weed grasses (evaluation scheme number), Digitaria (Digitaria [1]; 2.5 kg/hectare): 1 (100)
Effect on weed grasses (evaluation scheme number), Echinochloa (Echinochloa [2]; 0.15 kg/hectare): 2 (97.5 to <100)
Effect on weed grasses (evaluation scheme number), Echinochloa (Echinochloa [2]; 0.62 kg/hectare): 2 (97.5 to <100)
Effect on weed grasses (evaluation scheme number), Echinochloa (Echinochloa [2]; 2.5 kg/hectare): 1 (100)
Effect on weed grasses (evaluation scheme number), Setaria (Setaria [3]; 0.15 kg/hectare): 2 (97.5 to <100)
Effect on weed grasses (evaluation scheme number), Setaria (Setaria [3]; 0.62 kg/hectare): 1 (100)
Effect on weed grasses (evaluation scheme number), Setaria (Setaria [3]; 2.5 kg/hectare): 1 (100)
Effect on weed grasses (evaluation scheme number), Lolium (Lolium [4]; 0.15 kg/hectare): 5 (85.0 to <90.0)
Effect on weed grasses (evaluation scheme number), Lolium (Lolium [4]; 0.62 kg/hectare): 3 (95.0 to <.97.5)
Effect on weed grasses (evaluation scheme number), Lolium (Lolium [4]; 2.5 kg/hectare): 2 (97.5 to <100)
dosage sufficient with respect to the comparative compound (90% effect) (Avena fatua [5]; applied in the second stage): about half the dosage
effect on wild oat compared with compound A (Avena fatua [5]; emulsion concentrate of 36% strength, in words): better effect on wild oat than compound A
90% effective dose (Avena fatua [5]; stage 1 (3 to 4 leaves with beginning growth of side)): 0.34 kg per hectare
Effect on wild oat (evaluation), Avena fatua (Avena fatua [5]; stage 1, 0.112 kg/hectare): 6 (75.0 to <85.0)
Effect on wild oat (evaluation), Avena fatua (Avena fatua [5]; stage 1, 0.225 kg/hectare): 5 (85.0 to <90.0)
Effect on wild oat (evaluation), Avena fatua (Avena fatua [5]; stage 1, 0.45 kg/hectare): 4 (90.0 to <95.0)
Effect on wild oat (evaluation), Avena fatua (Avena fatua [5]; stage 1, 0.9 kg/hectare): 3 (95.0 to <.97.5)
90% effective dose (Avena fatua [5]; stage 2 (main tillering to terminated tillering)): 0.45 kg per hectare
Effect on wild oat (evaluation), Avena fatua (Avena fatua [5]; stage 2, 0.112 kg/hectare): 7 (65.0 to <75.0)
Effect on wild oat (evaluation), Avena fatua (Avena fatua [5]; stage 2, 0.225 kg/hectare): 6 (75.0 to <85.0)
Effect on wild oat (evaluation), Avena fatua (Avena fatua [5]; stage 2, 0.45 kg/hectare): 4 (90.0 to <95.0)
Effect on wild oat (evaluation), Avena fatua (Avena fatua [5]; stage 2, 0.9 kg/hectare): 3 (95.0 to <.97.5)
evaluation, spring wheat (spring wheat [6]; stage 1, 0.112 kg/hectare): 1 (0)
evaluation, spring wheat (spring wheat [6]; stage 1, 0.225 kg/hectare): 1 (0)
evaluation, spring wheat (spring wheat [6]; stage 1, 0.45 kg/hectare): 1 (0)
evaluation, spring wheat (spring wheat [6]; stage 1, 0.9 kg/hectare): 2 (0 to 2.5)
evaluation, spring wheat (spring wheat [6]; stage 2, 0.112 kg/hectare): 1 (0)
evaluation, spring wheat (spring wheat [6]; stage 2, 0.225 kg/hectare): 1 (0)
evaluation, spring wheat (spring wheat [6]; stage 2, 0.45 kg/hectare): 1 (0)
evaluation, spring wheat (spring wheat [6]; stage 2, 0.9 kg/hectare): 2 (0 to 2.5)
Effect on wild oat, Avena fatua, number (Avena fatua [7]; 3-leaf stage): 1 (100)
degree of damage % (evaluation by weight), Avena fatua (Avena fatua [7]; 3-leaf stage): 100%
Effect on wild oat, Avena fatua, number (Avena fatua [7]; start of tillering): 3 to 4
degree of damage % (evaluation by weight), Avena fatua (Avena fatua [7]; start of tillering): 96%
sugar beet number (sugar beet; 2-leaf stage): 2 (0 to 2.5)
sugar beet number (sugar beet; 4-leaf stage): 2 (0 to 2.5)
Effect (evaluation scheme), Avena fatua (Avena fatua [8]; 0.225 kg/hectare): 7 (65.0 to <75.0)
Effect (evaluation scheme), Avena fatua (Avena fatua [8]; 0.45 kg/hectare): 6 (75.0 to <85.0)
Effect (evaluation scheme), Avena fatua (Avena fatua [8]; 0.9 kg/hectare): 5 (85.0 to <90.0)
effect on Avena fatua compared with comparative compound (Avena fatua [8]; in words): distinctly better effect than the comparative compound
Effect (evaluation scheme), Avena ludoviciana (Avena ludoviciana; 0.225 kg/hectare): 6 (75.0 to <85.0)
Effect (evaluation scheme), Avena ludoviciana (Avena ludoviciana; 0.45 kg/hectare): 5 (85.0 to <90.0)
Effect (evaluation scheme), Avena ludoviciana (Avena ludoviciana; 0.9 kg/hectare): 4 (90.0 to <95.0)
effect on Avena ludoviciana compared with comparative compound (Avena ludoviciana; in words): distinctly better effect than the comparative compound
Effect (evaluation scheme), Alopecurus myos. (Alopecurus myos.; 0.225 kg/hectare): 5 (85.0 to <90.0)
Effect (evaluation scheme), Alopecurus myos. (Alopecurus myos.; 0.45 kg/hectare): 3 (95.0 to <.97.5)
Effect (evaluation scheme), Alopecurus myos. (Alopecurus myos.; 0.9 kg/hectare): 1 (100)
response of annual black-grass (Alopecurus) (Alopecurus myos.; in words): responded very well
evaluation scheme, spring wheat (spring wheat [9]; 0.225 kg/hectare): 1 (0)
evaluation scheme, spring wheat (spring wheat [9]; 0.45 kg/hectare): 1 (0)
evaluation scheme, spring wheat (spring wheat [9]; 0.9 kg/hectare): 1 (0)
evaluation scheme, spring barley (spring barley; 0.225 kg/hectare): 1 (0)
evaluation scheme, spring barley (spring barley; 0.45 kg/hectare): 1 (0)
evaluation scheme, spring barley (spring barley; 0.9 kg/hectare): 1 (0)
Effect on weed grasses (evaluation scheme), Digitaria (Digitaria [10]; 0.62 kg/hectare): 4 (90.0 to <95.0)
Effect on weed grasses (evaluation scheme), Digitaria (Digitaria [10]; 1.25 kg/hectare): 2 (97.5 to <100)
Effect on weed grasses (evaluation scheme), Echinochloa (Echinochloa [11]; 0.62 kg/hectare): 3 (95.0 to <.97.5)
Effect on weed grasses (evaluation scheme), Echinochloa (Echinochloa [11]; 1.25 kg/hectare): 2 (97.5 to <100)
Effect on weed grasses (evaluation scheme), Lolium (Lolium [12]; 0.62 kg/hectare): 6 (75.0 to <85.0)
Effect on weed grasses (evaluation scheme), Lolium (Lolium [12]; 1.25 kg/hectare): 3 (95.0 to <.97.5)
Effect on weed grasses (evaluation scheme), Setaria (Setaria [13]; 0.62 kg/hectare): 6 (75.0 to <85.0)
Effect on weed grasses (evaluation scheme), Setaria (Setaria [13]; 1.25 kg/hectare): 4 (90.0 to <95.0)
effect in pre-emergence treatment compared with comparative compound A (weed grasses): better effect
efficiency in % (counting of panicles) (wild oat [14]; 0.54 kg/hectare): 79.0%
evaluation 5 weeks after treatment (wild oat [14]; 0.54 kg/hectare): 7 (65.0 to <75.0)
efficiency in % (counting of panicles) (wild oat [14]; 0.72 kg/hectare): 90.0%
evaluation 5 weeks after treatment (wild oat [14]; 0.72 kg/hectare): 5 (85.0 to <90.0)
efficiency in % (counting of panicles) (wild oat [14]; 0.90 kg/hectare): 97.4%
evaluation 5 weeks after treatment (wild oat [14]; 0.90 kg/hectare): 3 (95.0 to <.97.5)
amount sufficient compared with the comparative compound (90% effect) (wild oat [14]; probit method): about 1/4
amount of active compound required for a 90% effect (wild oat [14]; without wetting agent, probit method (graphical evaluation)): 0.68 kg/hectare
effect (number) on wild oat (wild oat [15]): 1 (100)
